Reference: ChEMBL document CHEMBL1938264, “Novel 3,4-isoxazolediamides as potent inhibitors of chaperone heat shock protein 90” (J Med Chem, 2011)
pIC50: −log10 of the molar value. The source made the active and inactive calls. The calls are words filed in the database; no cut-off is given here.

Columns and labels:
[1] = biological target: T1, Heat shock protein HSP 90-beta (Homo sapiens, UniProt P08238); experiment: Inhibition of Hsp90 in human A431 cells assessed as reduction in EGFR protein expression after 24 hrs by Western blot analysis; format: cell-based; conditions: A-431
T1 sequence (P08238 whole entry): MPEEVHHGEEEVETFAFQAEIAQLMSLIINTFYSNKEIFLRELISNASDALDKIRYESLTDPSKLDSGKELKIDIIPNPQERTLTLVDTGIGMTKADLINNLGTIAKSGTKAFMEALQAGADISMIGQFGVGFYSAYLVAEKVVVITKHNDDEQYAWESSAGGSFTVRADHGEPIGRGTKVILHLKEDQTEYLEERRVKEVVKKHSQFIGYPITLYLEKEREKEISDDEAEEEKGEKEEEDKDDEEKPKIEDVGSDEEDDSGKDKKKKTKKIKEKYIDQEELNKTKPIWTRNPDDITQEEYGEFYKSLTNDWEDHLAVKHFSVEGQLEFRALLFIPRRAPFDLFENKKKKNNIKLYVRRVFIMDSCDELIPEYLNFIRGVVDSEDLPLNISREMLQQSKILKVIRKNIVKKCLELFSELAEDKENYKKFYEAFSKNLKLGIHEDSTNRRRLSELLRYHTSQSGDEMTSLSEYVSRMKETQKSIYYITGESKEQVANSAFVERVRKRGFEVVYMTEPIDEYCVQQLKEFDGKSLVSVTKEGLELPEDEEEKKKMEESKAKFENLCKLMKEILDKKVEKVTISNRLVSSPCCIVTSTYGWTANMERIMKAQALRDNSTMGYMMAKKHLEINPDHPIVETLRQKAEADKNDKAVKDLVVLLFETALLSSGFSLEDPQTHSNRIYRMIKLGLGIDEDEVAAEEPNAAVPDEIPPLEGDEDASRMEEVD

NCI-H460 = experiment: Cytotoxicity against human NCI-H460 after 72 hrs by sulforhodamine B assay; format: functional, cell-based; conditions: NCI-H460, 72 h
[2] = biological target: T1, Heat shock protein HSP 90-beta; experiment: Inhibition of Hsp90 in human A431 cells assessed as reduction in Akt protein expression after 24 hrs by Western blot analysis; format: cell-based; conditions: A-431
[3] = biological target: T1, Heat shock protein HSP 90-beta; experiment: Inhibition of Hsp90 in human A431 cells assessed as reduction in CDK4 protein expression after 24 hrs by Western blot analysis; format: cell-based; conditions: A-431
[4] = biological target: T1, Heat shock protein HSP 90-beta; experiment: Inhibition of Hsp90 in human A431 cells assessed as increase in Hsp70 protein expression at 0.11 to 0.8 uM after 24 hrs by Western blot analysis; format: cell-based; conditions: A-431
[5] = biological target: T1, Heat shock protein HSP 90-beta; experiment: Binding affinity to Hsp90 after 4 hrs by fluorescence polarization assay
Mus musculus [6] = experiment: Degradation of EGFR in human A431 cells xenografted in CD1 Harlan mouse at 60 mg/kg, ip qd administered for 5 days measured 2 hrs post-last dose by Western blot analysis; format: functional, organism-based; set-up: dose 60 mg/kg; conditions: A-431
A-431 = experiment: Antitumor activity against human A431 cells xenografted in CD1 Harlan mouse assessed as tumor volume inhibition at 60 mg/kg, ip qd administered for 5 days; format: functional; conditions: A-431, ip, 120 h, route intraperitoneal
[7] = Toxicity in human A431 cells xenografted ip dosed CD1 Harlan mouse; format: organism-based, A-431; conditions: in vivo
Mus musculus [8] = experiment: Degradation of Akt in human A431 cells xenografted in CD1 Harlan mouse at 60 mg/kg, ip qd administered for 5 days measured 2 hrs post-last dose by Western blot analysis; format: functional, organism-based; set-up: dose 60 mg/kg; conditions: A-431
Mus musculus [9] = experiment: Degradation of CDK4 in human A431 cells xenografted in CD1 Harlan mouse at 60 mg/kg, ip qd administered for 5 days measured 2 hrs post-last dose by Western blot analysis; format: functional, organism-based; set-up: dose 60 mg/kg; conditions: A-431
Mus musculus [10] = experiment: Toxicity in human A431 cells xenografted CD1 Harlan mouse assessed as body weight loss at 60 mg/kg, ip qd administered for 5 days; format: organism-based, A-431; set-up: dose 60 mg/kg, route intraperitoneal; conditions: in vivo, 120 h
Mus musculus [11] = experiment: Increase of Hsp70 expression in human A431 cells xenografted in CD1 Harlan mouse at 60 mg/kg, ip qd administered for 5 days measured 2 hrs post-last dose by Western blot analysis; format: functional, organism-based; set-up: dose 60 mg/kg; conditions: A-431
[12] = biological target: T1, Heat shock protein HSP 90-beta; experiment: Inhibition of Hsp90 in human A431 cells assessed as increase in Hsp70 protein expression at 0.0031 to 0.8 uM after 24 hrs by Western blot analysis; format: cell-based; conditions: A-431
[13] = biological target: T1, Heat shock protein HSP 90-beta; experiment: Inhibition of Hsp90 in human A431 cells assessed as increase in Hsp70 protein expression at 0.01 to 0.814 uM after 24 hrs by Western blot analysis; format: cell-based; conditions: A-431
[14] = biological target: T1, Heat shock protein HSP 90-beta; experiment: Inhibition of Hsp90 in human A431 cells assessed as increase in Hsp70 protein expression at 0.011 to 0.9 uM after 24 hrs by Western blot analysis; format: cell-based; conditions: A-431
[15] = biological target: T1, Heat shock protein HSP 90-beta; experiment: Inhibition of Hsp90 in human A431 cells assessed as increase in Hsp70 protein expression at 0.075 to 1.2 uM after 24 hrs by Western blot analysis; format: cell-based; conditions: A-431
[16] = biological target: T1, Heat shock protein HSP 90-beta; experiment: Inhibition of Hsp90 in human A431 cells assessed as increase in Hsp70 protein expression at 0.00493 to 1.2 uM after 24 hrs by Western blot analysis; format: cell-based; conditions: A-431

Compound | inhibition [1] | pIC50 (NCI-H460) | inhibition [2] | inhibition [3] | inhibition [4] | pIC50 [5] | Activity (Mus musculus [6]) | inhibition in vivo at 60 mg/kg (A-431) [%] | MTD [7] [mg/kg] | Activity (Mus musculus [8]) | Activity (Mus musculus [9]) | Activity (Mus musculus [10]) [%] | Activity (Mus musculus [11]) | inhibition [12] | inhibition [13] | inhibition [14] | inhibition [15] | inhibition [16]
CCNC(=O)c1noc(-c2cc(C(C)C)c(O)cc2O)c1NC(=O)c1sccc1C | Dose-dependent effect | 7.77 | Dose-dependent effect | Dose-dependent effect | Active | 7.08 | – | – | – | – | – | – | – | – | – | – | – | –
CCNC(=O)c1noc(-c2cc(C(C)C)c(O)cc2O)c1NC(=O)c1cc(CN2CCOCC2)on1 | – | 6.70 | – | – | – | 7.40 | Active | 48 | 60 | Active | Active | 7 | Active | – | – | – | – | –
CCNC(=O)c1noc(-c2cc(C(C)C)c(O)cc2O)c1NC(=O)C(C)(C)C | Dose-dependent effect | 7.62 | Dose-dependent effect | Dose-dependent effect | – | 7.39 | – | – | – | – | – | – | – | Active | – | – | – | –
CCNC(=O)c1noc(-c2cc(C(C)C)c(O)cc2O)c1NC(=O)c1cc(CC)on1 | Dose-dependent effect | 7.66 | Dose-dependent effect | Dose-dependent effect | – | 7.70 | – | – | – | – | – | – | – | – | Active | – | – | –
CCNC(=O)c1noc(-c2cc(C(C)C)c(O)cc2O)c1NC(=O)[C@H]1CC[C@@H](OC)CC1 | Dose-dependent effect | 7.89 | Dose-dependent effect | Dose-dependent effect | – | 7.62 | – | – | – | – | – | – | – | – | – | Active | – | –
CCNC(=O)c1noc(-c2cc(C(C)C)c(O)cc2O)c1NC(=O)c1ccc(CN2CCOCC2)cc1 | Dose-dependent effect | 7.02 | Dose-dependent effect | Dose-dependent effect | – | 7.15 | – | 33 | 60 | – | – | 2 | – | – | – | – | Active | –
CCNC(=O)c1noc(-c2cc(C(C)C)c(O)cc2O)c1NC(=O)C1CCCCC1 | Dose-dependent effect | 7.80 | Dose-dependent effect | Dose-dependent effect | – | 6.72 | – | – | – | – | – | – | – | – | – | – | – | Active
